Experimental data published in patent EP1371368A1, “Salvianolic acid components as lipase inhibitors” (N.V. Nutricia, priority 2002, dated 2003).

Target: T1, porcine pancreas lipase (Sus scrofa, UniProt P00591)
T1 construct: purchased ICN Biomedicals BV
T1 sequence (P00591 1-450): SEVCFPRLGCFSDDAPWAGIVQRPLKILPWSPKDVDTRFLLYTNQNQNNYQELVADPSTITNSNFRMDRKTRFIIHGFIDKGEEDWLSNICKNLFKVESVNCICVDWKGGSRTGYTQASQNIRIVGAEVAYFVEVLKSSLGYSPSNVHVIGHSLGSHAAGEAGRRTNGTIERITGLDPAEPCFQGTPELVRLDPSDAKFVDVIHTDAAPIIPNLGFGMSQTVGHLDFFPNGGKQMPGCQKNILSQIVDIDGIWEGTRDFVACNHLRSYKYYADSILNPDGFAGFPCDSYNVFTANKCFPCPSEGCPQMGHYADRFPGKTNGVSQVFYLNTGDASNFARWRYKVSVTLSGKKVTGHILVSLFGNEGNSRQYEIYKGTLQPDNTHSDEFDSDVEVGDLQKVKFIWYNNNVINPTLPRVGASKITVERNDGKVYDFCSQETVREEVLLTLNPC
Assay: In vitro lipase inhibitory activity (hydrolysis of p-nitrophenyl caprylate to p-nitrophenol, absorption at 405 nm)
Format: biochemical
Details: inhibition of lipase activity compared to control at the final concentration printed in the same row
Protocol: Lipase activity was determined by measuring the rate of hydrolysis of p-nitrophenyl caprylate to p-nitrophenol (yellow) and caprylate.
Phosphate buffer A (200 mM phosphate buffer with a pH 7) was prepared by mixing: 488 ml 200 mM Na2HPO4·H2O (17.5 gram/500 ml) with 296 ml 200 mM NaH2PO4·H2O (13.8 gram/500 ml) followed by adjustment of the pH. Substrate solution was prepared freshly by mixing: • a) 500 ml buffer B (200 mM phosphate buffer A pH 7 containing 0.1% (w/v) Triton x-100) and • b) 5.3 ml stock solution of the substrate (250 mM p-nitrophenyl caprylaat (pnp) in acetonitrile). […] The final concentration of pnp in the substrate solution is thus 2.66 mM pnp. Subsequently, the substrate solution was placed in an ultrasonic bath for exactly 3 minutes. […]
Samples were prepared by adding 40 mg of commercial extracts of Salvia material to 4 ml DMSO, incubating at room temperature for 15 minutes, followed by centrifugation to remove the insolubles. […] For each sample the capacity to inhibit lipase activity was determined.
25 µl of sample (25 µl DMSO for control) was added to 150µl substrate solution and incubated for 10 minutes at 37 °C. Subsequently 25 µl lipase solution was added and the p-nitrophenol formation was determined during a period of 10 minutes by measuring the absorption increase at 405 nm. […]

CCCCCCCCCCC[C@@H](C[C@@H]1OC(=O)[C@H]1CCCCCC)OC(=O)[C@H](CC(C)C)NC=O [Orlistat]
Inhibition (%): 50%
